Measured values reported in patent US8148404B2, “Modulators of CB1 receptors” (7TM Pharma A/S, priority 2006, dated 2012).
pIC50: −log10 of the molar value.

Molecular target: T1, human CB1 receptor (Homo sapiens, UniProt P21554)
T1 construct: expressed in transfected cells; membranes used
Assay: Cannabinoid Receptor-1 functional assay: inhibition of CP55940-induced [35S]GTPγS binding to membranes of CHO-K1 cells expressing human CB1
Assay type: biochemical
Details: 3 nM CP55940, [35S]GTPγS SPA, hCB1 membranes; read-out: IC50 value for antagonizing a CB1 receptor agonist
Summary of the method: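 Membranes (5 μg/well) from CHO-K1 cells stably expressing human CB1 incubated 1 hr at room temperature with 1 nM [35S]GTPγS, 3 nM CP55940 and test compound in HEPES pH 7.5 buffer with 1 μM GDP, saponin. Bound label read by SPA after 30 min with beads; IC50 by non-linear regression.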

T1 sequence (P21554 whole entry): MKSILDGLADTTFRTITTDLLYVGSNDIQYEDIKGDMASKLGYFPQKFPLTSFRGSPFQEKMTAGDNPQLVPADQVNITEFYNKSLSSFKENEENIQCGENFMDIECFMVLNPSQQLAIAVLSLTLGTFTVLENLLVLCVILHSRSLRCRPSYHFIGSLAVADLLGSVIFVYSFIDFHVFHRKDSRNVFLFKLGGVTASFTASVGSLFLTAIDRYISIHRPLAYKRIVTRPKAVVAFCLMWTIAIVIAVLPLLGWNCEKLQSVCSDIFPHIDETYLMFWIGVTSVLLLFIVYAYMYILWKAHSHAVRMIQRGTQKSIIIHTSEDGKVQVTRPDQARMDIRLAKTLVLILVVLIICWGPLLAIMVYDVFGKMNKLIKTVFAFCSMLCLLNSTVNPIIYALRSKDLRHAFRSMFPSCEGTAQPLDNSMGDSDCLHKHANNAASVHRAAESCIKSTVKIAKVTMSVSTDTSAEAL

- pIC50: > 6.52
Compound: O=C(O)Cc1c(C(=O)N2CCC(c3ccccc3F)CC2)nn(-c2ccccc2F)c1-c1ccc(Cl)cc1 [[4.4], {1-(2-Fluoro-phenyl)-5-(4-chloro-phenyl)-3-[4-(2-fluoro-phenyl)-piperidine-1-carbonyl]-1H-pyrazol-4-yl}-acetic acid]
